Experimental findings from patent US20240067632A1, “WEE1 Degrading Compounds and Uses Thereof” (Bristol-Myers Squibb Company, priority 2022, published 2024) are described below.

A word on the EC50: it is the concentration needed to bring the measured effect to its halfway point.

For assay [1], the target named is T1, WEE1 (Homo sapiens, UniProt P30291+Q96SW2).
T1 construct: C-terminal ePL-tagged (DiscoverX, Fremont, CA) full-length WEE1 expression construct; expressed in transfected cells; host or cells: LentiX-HEK293T (Invitrogen), lentiviral transduction; co-expressing GSPT1-GN (G576N, lacking the first 158 amino acids)
In words: WEE1-ePL degradation assay (LentiX-WEE1-ePL-GSPT1-ND cells, InCELL Hunter luminescence, 4 h). The assay is classed as cell-based. To be noted: 293T-LentiX WEE1-ePL cells; for 293T-LentiX WEE1-ePL Degradation 4 hr (Ymin): lower limit of the fit (Ymin=0 luciferase inhibitor, Ymax DMSO control); for DC50: read-out: 293T-LentiX WEE1-ePL Degradation 4 hr (EC50). In a few lines: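 Luminescent readout (InCELL Hunter, 30 min RT) of WEE1-ePL levels in transduced HEK293T cells after 4 h compound exposure at 37 °C. Dosing: 10 points, 3-fold steps, top 1 uM or 10 uM. EC50 from four-parameter logistic fit; Ymax set by DMSO.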

In assay [2] the test system is MKN45 cells. As to the kind of experiment: MKN45 cell proliferation assay (Cell-Titer-Glo, 120 h). The conditions noted are these: for EC50: Homo sapiens, MKN-45, 120 h, Cell-Titer-Glo, read-out: MKN45 Cell Prolif. 120 hr (EC50); for MKN45 Cell Prolif. 120 hr (Ymin-Obs): minimal percent of DMSO control observed in the concentrations tested. It is filed as cell-based. In a few lines:
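Growth inhibition was read as blank-corrected Cell-Titer-Glo luminescence expressed as percent DMSO control after 120 h at 37 C, 400 cells/well. Compounds tested in triplicate as 10-point half-log series from 1 or 10 uM, 0.1% DMSO; four-parameter fit gave EC50, and lowest observed percent control was reported as Ymin-obs.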

As for `C[C@@H]1CN(Cc2cc(F)c3nc([C@H]4CCOC4)ccc3c2)C[C@H]1Oc1ccc2c(c1)CN([C@H]1CCC(=O)NC1=O)C2=O` [(3S)-3-(5-{[(3S,4R)-1-({8-fluoro-2-[(3R)-oxolan-3-yl]quinolin-6-yl}methyl)-4-methylpyrrolidin-3-yl]oxy}-1-oxo-2,3-dihydro-1H-isoindol-2-yl)piperidine-2,6-dione], in assay [1], the “293T-LentiX WEE1-ePL Degradation 4 hr (Ymin)” value turned out to be 26.61 and the DC50 was determined as 0.985 nM. Further, in assay [2], the EC50 was 0.955 nM and the “MKN45 Cell Prolif. 120 hr (Ymin-Obs)” value is listed as 7.865.

For the molecule `C[C@@H]1CN(Cc2cc(F)c3nc([C@@H]4CCOC4)ccc3c2)C[C@H]1Oc1ccc2c(c1)CN([C@H]1CCC(=O)NC1=O)C2=O` [(3S)-3-(5-{[(3S,4R)-1-({8-fluoro-2-[(3S)-oxolan-3-yl]quinolin-6-yl}methyl)-4-methylpyrrolidin-3-yl]oxy}-1-oxo-2,3-dihydro-1H-isoindol-2-yl)piperidine-2,6-dione], in assay [1], the “293T-LentiX WEE1-ePL Degradation 4 hr (Ymin)” value is 26.17 and the DC50 was 1.41 nM. For the same molecule, in assay [2], the EC50 turned out to be 1.13 nM and the “MKN45 Cell Prolif. 120 hr (Ymin-Obs)” value is recorded as 7.979.

In the case of `C[C@@H]1CN(Cc2cc(F)c3nc(C4CCOCC4)ccc3c2)C[C@H]1Oc1ccc2c(c1)CN([C@H]1CCC(=O)NC1=O)C2=O` [(3S)-3-(5-{[(3S,4R)-1-{[8-fluoro-2-(oxan-4-yl)quinolin-6-yl]methyl}-4-methylpyrrolidin-3-yl]oxy}-1-oxo-2,3-dihydro-1H-isoindol-2-yl)piperidine-2,6-dione], in assay [1], the “293T-LentiX WEE1-ePL Degradation 4 hr (Ymin)” value is reported as 33.52 and the DC50 came out at 1.05 nM. Moreover, in assay [2], the half-maximal effective concentration (EC50) amounted to 1.42 nM and the “MKN45 Cell Prolif. 120 hr (Ymin-Obs)” value amounted to 9.05.

As to `COC[C@@H]1CN(Cc2ccc3nc([C@@H]4CCOC(C)(C)C4)ccc3c2)C[C@H]1Oc1ccc2c(c1)CN([C@H]1CCC(=O)NC1=O)C2=O` [(3S)-3-(5-{[(3S,4S)-1-({2-[(4R)-2,2-dimethyloxan-4-yl]quinolin-6-yl}methyl)-4-(methoxymethyl)pyrrolidin-3-yl]oxy}-1-oxo-2,3-dihydro-1H-isoindol-2-yl)piperidine-2,6-dione], in assay [1], the “293T-LentiX WEE1-ePL Degradation 4 hr (Ymin)” value is recorded as 25.48 and the DC50 is 0.726 nM. Moreover, in assay [2], the EC50 is 0.247 nM and the “MKN45 Cell Prolif. 120 hr (Ymin-Obs)” value is 7.692.

Turning to `COC[C@@H]1CN(Cc2cc(F)c3nc([C@H]4CCOC(C)(C)C4)ccc3c2)C[C@H]1Oc1ccc2c(c1)CN([C@H]1CCC(=O)NC1=O)C2=O` [(3S)-3-(5-{[(3S,4S)-1-({2-[(4S)-2,2-dimethyloxan-4-yl]-8-fluoroquinolin-6-yl}methyl)-4-(methoxymethyl)pyrrolidin-3-yl]oxy}-1-oxo-2,3-dihydro-1H-isoindol-2-yl)piperidine-2,6-dione], in assay [1], the “293T-LentiX WEE1-ePL Degradation 4 hr (Ymin)” value turned out to be 25.19 and the DC50 amounted to 1.2 nM. In assay [2], the half-maximal effective concentration (EC50) stood at 0.638 nM and the “MKN45 Cell Prolif. 120 hr (Ymin-Obs)” value worked out at 8.947.

Turning to `COC[C@@H]1CN(Cc2ccc3nc([C@H]4CCOC(C)(C)C4)ccc3c2)C[C@H]1Oc1ccc2c(c1)CN([C@H]1CCC(=O)NC1=O)C2=O` [(3S)-3-(5-{[(3S,4S)-1-({2-[(4S)-2,2-dimethyloxan-4-yl]quinolin-6-yl}methyl)-4-(methoxymethyl)pyrrolidin-3-yl]oxy}-1-oxo-2,3-dihydro-1H-isoindol-2-yl)piperidine-2,6-dione], in assay [1], the “293T-LentiX WEE1-ePL Degradation 4 hr (Ymin)” value is 25.45 and the DC50 was determined as 1.25 nM. Besides, in assay [2], the EC50 stood at 0.558 nM and the “MKN45 Cell Prolif. 120 hr (Ymin-Obs)” value stood at 8.285.

As to `COC[C@@H]1CN(Cc2ccc3nc(C4CCN(C(C)=O)CC4)ncc3c2)C[C@H]1Oc1ccc2c(c1)CN([C@H]1CCC(=O)NC1=O)C2=O` [(3S)-3-(5-{[(3S,4S)-1-{[2-(1-acetylpiperidin-4-yl)quinazolin-6-yl]methyl}-4-(methoxymethyl)pyrrolidin-3-yl]oxy}-1-oxo-2,3-dihydro-1H-isoindol-2-yl)piperidine-2,6-dione], in assay [1], the “293T-LentiX WEE1-ePL Degradation 4 hr (Ymin)” value came out at 26.93 and the DC50 amounted to 11.9 nM. In assay [2], the EC50 was 3.54 nM and the “MKN45 Cell Prolif. 120 hr (Ymin-Obs)” value came out at 9.28.
